Here are results for nine compounds from patent US7728142B2, “3-methanesulfonylquinolines as GABAB enhancers” (Hoffmann-La Roche Inc., priority 2005, dated 2010).

One data set relates to symptoms of PTSD. The settings on record: small group of veterans with chronic, combat-related PTSD; cited from earlier work.
The conditions of data set [1]: in vivo; cited from earlier work.
The next data set deals with prepulse inhibition. The settings on record: rat; cited from earlier work.
For data set [2] the following is noted: PO, cited from earlier work.
Data set [3] relates to panic attacks and symptoms of anxiety. The settings on record: panic disorder patients; Hamilton, Zung anxiety scales, Katz-R nervousness subscale; cited from earlier work.
Another data set addresses GABABR1R2 (Homo sapiens, UniProt O75899+Q9UBS5). The note with it: absence of GABA; cited from earlier work.
For data set [4], the system named is Gastro-Esophageal Reflux Disease. The settings on record: preclinical; cited from earlier work.
Data set [5] concerns cocaine self-administration. The settings on record: rats; cited from earlier work.
Data set [6] concerns the target T1, human GABABR1aR2a (Homo sapiens, UniProt O75899+Q9UBS5).
T1 construct: expressed in transfected cells
Kind of data set: Intracellular Ca2+ mobilization assay (FLIPR), enhancer concentration-response in presence of 10 nM GABA. Type of data set: cell-based. The note with it: CHO-GABABR1aR2a-Gα16 cell; for Emax: enhancer 0.001-30 μM in presence of 10 nM GABA (EC10), read-out: Emax (%) at 10 nM GABA alone = 0% 10 μM GABA alone = 100%; for EC50: in presence of 10 nM GABA (EC10). The protocol:
(§1) Intracellular Ca^2+ Mobilization Assay
(§2) Chinese Hamster Ovary (CHO) cells stably expressing human GABABR1aR2a and Gα16 were seeded at 5×10^4 cells/well in the poly-D-lysine treated, 96-well, black/clear-bottomed plates (BD Biosciences, Palo Alto, Calif.). 24 h later, the cells were loaded for 90 min at 37° C. with 4 μM Flou-4 acetoxymethyl ester (Catalog No. F-14202, Molecular Probes, Eugene, Oreg.) in loading buffer (1×HBSS, 20 mM HEPES, 2.5 mM Probenecid). Hanks' Balanced Salt Solution (HBSS) (10×) (catalog No. 14065-049) and HEPES (1M) (catalog No. 15630-056) were purchased from Invitrogen, Carlsbad, Calif. Probenecid (250 mM) (catalog No. P8761) was from Sigma, Buchs, Switzerland. The cells were washed five times with loading buffer to remove excess dye and intracellular calcium mobilization, [Ca^2+] was measured using a Fluorometric Imaging Plate Reader (FLIPR, Molecular Devices, Menlo Park, Calif.) as described previously (Porter et al., Br. J. Pharmacol., 128, 13-20, 1999). The enhancers were applied 15 min before the application of the GABA. For GABA shift assay, concentration-response curves of GABA (0.0003-30 μM) were determined in the absence and presence of 10 μM enhancer. The GABA-shift is defined as Log [EC50 (GABA+10 μM enhancer)/EC50 (GABA alone)]. The % maximum enhancing effect (% Emax) and potency (EC50 value) of each enhancer was determined from concentration-response curve of the enhancer (0.001-30 μM) in the presence of 10 nM GABA (EC10). Responses were measured as peak increase in fluorescence minus basal, normalized to the maximal stimulatory effect induced by 10 μM GABA alone (considered 100%) and 10 nM GABA alone (considered 0%). The data were fitted with the equation Y=100+(Max−100)/(1+(EC50/[drug])^n) where Max is the maximum effect, EC50 the concentration eliciting a half-maximum effect and n the Hill slope.
On the technique in general: Calcium assays in cells follow changes in intracellular calcium, usually with a dye or a luminescent sensor.

For data set [7], the target named is T1, human GABABR1aR2a. Briefly: GABA shift assay (Ca2+ mobilization, GABA curves with and without 10 μM enhancer). Type of data set: cell-based. The note with it: CHO-GABABR1aR2a-Gα16 cell. Here is the method: as §1, §2
The test system of data set [8] is anxiety. The note with it: elevated plus maze (rat), elevated zero maze (mice and rats), stress-induced hyperthermia (mice); cited from earlier work.
The test system of data set [9] is anxiety. The settings on record: cited from earlier work.
Another data set relates to cognition performance. The settings on record: passive avoidance, mice and rats; cited from earlier work.

Read-outs that look alike come from different tables or passages of the source.

T1 sequence (Q9UBS5 15-961 limits assumed): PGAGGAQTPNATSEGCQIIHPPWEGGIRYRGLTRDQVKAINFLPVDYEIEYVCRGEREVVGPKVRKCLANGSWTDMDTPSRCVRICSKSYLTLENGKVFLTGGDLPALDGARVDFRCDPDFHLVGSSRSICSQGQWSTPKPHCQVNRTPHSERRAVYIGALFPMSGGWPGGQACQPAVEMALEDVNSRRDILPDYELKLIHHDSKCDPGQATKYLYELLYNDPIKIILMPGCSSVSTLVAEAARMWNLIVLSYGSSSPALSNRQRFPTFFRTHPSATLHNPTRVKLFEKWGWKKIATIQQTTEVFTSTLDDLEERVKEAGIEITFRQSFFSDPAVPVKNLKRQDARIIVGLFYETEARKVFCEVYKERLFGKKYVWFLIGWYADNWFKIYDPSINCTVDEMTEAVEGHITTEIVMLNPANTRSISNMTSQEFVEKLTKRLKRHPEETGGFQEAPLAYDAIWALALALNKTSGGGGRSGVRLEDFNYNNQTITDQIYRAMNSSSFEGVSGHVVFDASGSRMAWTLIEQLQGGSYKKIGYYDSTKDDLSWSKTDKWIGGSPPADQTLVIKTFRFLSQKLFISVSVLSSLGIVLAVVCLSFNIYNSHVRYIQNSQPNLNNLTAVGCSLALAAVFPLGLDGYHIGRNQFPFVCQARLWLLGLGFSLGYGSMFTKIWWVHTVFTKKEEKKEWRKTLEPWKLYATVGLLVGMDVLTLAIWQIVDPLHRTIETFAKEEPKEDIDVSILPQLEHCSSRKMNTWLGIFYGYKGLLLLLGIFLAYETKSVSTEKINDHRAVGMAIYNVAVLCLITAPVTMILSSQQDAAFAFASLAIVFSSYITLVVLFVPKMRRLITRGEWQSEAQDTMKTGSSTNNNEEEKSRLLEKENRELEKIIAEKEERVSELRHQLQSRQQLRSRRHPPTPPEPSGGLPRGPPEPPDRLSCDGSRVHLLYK
T1 sequence (O75899 42-941): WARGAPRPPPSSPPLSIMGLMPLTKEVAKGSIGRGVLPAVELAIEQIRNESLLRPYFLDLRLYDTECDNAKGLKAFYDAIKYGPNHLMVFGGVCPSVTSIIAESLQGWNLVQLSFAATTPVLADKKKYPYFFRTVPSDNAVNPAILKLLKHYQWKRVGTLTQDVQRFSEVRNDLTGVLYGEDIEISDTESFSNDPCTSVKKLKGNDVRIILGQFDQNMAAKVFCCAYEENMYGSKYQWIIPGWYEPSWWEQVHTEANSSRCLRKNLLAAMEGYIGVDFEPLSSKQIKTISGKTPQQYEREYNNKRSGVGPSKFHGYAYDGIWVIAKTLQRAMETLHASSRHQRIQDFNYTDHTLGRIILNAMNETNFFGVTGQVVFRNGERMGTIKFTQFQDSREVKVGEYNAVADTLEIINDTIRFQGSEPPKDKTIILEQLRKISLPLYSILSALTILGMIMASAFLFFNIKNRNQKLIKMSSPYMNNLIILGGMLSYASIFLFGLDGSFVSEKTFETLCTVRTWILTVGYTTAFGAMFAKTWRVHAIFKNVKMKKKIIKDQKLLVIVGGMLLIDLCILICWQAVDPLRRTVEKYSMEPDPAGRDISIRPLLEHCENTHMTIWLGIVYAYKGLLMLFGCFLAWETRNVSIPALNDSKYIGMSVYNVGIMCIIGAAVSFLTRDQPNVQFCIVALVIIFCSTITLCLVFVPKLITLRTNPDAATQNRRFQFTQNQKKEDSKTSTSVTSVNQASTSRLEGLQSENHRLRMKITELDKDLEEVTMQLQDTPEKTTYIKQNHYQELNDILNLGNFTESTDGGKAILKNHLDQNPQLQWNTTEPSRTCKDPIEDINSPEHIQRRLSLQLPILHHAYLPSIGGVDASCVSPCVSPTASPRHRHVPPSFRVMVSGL
GABABR1R2, sequence (Q9UBS5 20-961): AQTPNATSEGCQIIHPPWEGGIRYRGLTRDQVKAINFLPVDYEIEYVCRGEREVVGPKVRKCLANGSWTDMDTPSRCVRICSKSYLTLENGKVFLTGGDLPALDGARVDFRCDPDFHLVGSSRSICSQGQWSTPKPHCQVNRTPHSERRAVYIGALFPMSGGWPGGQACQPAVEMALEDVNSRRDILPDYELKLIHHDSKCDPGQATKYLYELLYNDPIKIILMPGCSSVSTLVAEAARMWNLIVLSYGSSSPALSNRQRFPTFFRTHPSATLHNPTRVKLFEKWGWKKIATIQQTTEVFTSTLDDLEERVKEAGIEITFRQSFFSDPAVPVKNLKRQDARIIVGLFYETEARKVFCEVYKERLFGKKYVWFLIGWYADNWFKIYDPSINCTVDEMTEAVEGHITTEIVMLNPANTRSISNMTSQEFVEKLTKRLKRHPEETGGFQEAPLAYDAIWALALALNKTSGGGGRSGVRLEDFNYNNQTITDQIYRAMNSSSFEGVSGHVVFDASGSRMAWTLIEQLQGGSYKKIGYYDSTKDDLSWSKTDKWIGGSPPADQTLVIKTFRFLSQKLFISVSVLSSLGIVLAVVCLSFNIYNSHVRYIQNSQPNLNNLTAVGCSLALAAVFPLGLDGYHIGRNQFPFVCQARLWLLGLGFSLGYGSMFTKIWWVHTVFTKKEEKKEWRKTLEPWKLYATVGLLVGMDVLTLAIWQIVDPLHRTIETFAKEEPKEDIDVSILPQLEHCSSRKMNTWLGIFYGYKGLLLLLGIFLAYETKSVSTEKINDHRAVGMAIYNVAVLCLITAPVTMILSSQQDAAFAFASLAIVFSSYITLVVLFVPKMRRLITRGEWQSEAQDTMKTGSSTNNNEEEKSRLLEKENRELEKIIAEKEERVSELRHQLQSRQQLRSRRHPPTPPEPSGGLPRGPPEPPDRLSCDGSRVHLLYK
GABABR1R2, sequence (O75899 42-941): as the sequence (O75899 42-941) above

For `NCC(CC(=O)O)c1ccc(Cl)cc1` (stereo not drawn) [Baclofen, β-chlorophenyl GABA], the “treatment of PTSD” value in the data set with symptoms of PTSD is “effective and well-tolerated treatment”. The blood-brain-barrier penetration entry in [1] is recorded as “poor blood-brain-barrier penetration”. Also, the “reversal of reduction in prepulse inhibition induced by dizocilpine” value in the data set with prepulse inhibition was “able to reverse the reduction in prepulse inhibition”. In addition, the “effect on spontaneous locomotor activity, rotarod, body temperature and traction test” value in data set [2] (2.5-15 mg/kg) is listed as “showed these side effects”. Also, the “reduction of number of panic attacks and symptoms of anxiety” value in data set [3] was “significantly effective”.

Take `CC(C)(CO)Cc1cc(C(C)(C)C)c(O)c(C(C)(C)C)c1` [CGP7930, 2,6-di-tert-butyl-4-(3-hydroxy-2,2-dimethyl-propyl)-phenol]: the “effect on their own at GABAB receptors” value at GABABR1R2 is given as “no effect on their own”. For the same compound, in [4], the “efficacy in GERD” value is “found to be effective”. Further, the “decrease of cocaine self-administration” value in data set [5] was “effective at decreasing cocaine self-administration”.

`CC(C)(C=O)Cc1cc(C(C)(C)C)c(O)c(C(C)(C)C)c1` [CGP13501]: on GABABR1R2, the “effect on their own at GABAB receptors” value was “no effect on their own”.

Take `Cc1nc2ccc(OC(F)(F)F)cc2c(-c2ccccc2)c1S(C)(=O)=O` [Example 1, 3-Methanesulfonyl-2-methyl-4-phenyl-6-trifluoromethoxy-quinoline]: on human GABABR1aR2a [6], the Emax worked out at 56% and the EC50 is 0.85 µM. The “GABA shift Log [EC50(GABA + 10 μM cp)/EC50(GABA alone)]” value (“GABA shift Log” for short) on human GABABR1aR2a [7] is −0.7.

With `Cc1nc2ccc(I)cc2c(N2CCOCC2)c1S(C)(=O)=O` [Example 5, 6-Iodo-3-methanesulfonyl-2-methyl-4-morpholin-4-yl-quinoline], on human GABABR1aR2a [6], the Emax turned out to be 30% and the EC50 stood at 2.1 µM. Besides, the “GABA shift Log” value on human GABABR1aR2a [7] is −0.4.

Consider `Cc1nc2ccc(I)cc2c(N2CCCCC2)c1S(C)(=O)=O` [Example 9, 6-Iodo-3-methanesulfonyl-2-methyl-4-piperidin-1-yl-quinoline], for which, at human GABABR1aR2a [6], the maximum response (Emax) stood at 48% and the EC50 came out at 0.6 µM. Moreover, the “GABA shift Log” value at human GABABR1aR2a [7] is given as −1.2.

As for `Cc1nc2ccc(I)cc2c(N2CCC[C@@H](O)C2)c1S(C)(=O)=O` [Example 11, (R)-1-(6-Iodo-3-methanesulfonyl-2-methyl-quinolin-4-yl)-piperidin-3-ol], on human GABABR1aR2a [6], the maximum response (Emax) is 26% and the EC50 stood at 0.8 µM. In addition, on human GABABR1aR2a [7], the “GABA shift Log” value is recorded as −0.8.

On to `Cc1nc2ccc(Br)cc2c(-c2ccc(F)cc2)c1S(C)(=O)=O` [Example 14, 6-Bromo-4-(4-fluoro-phenyl)-3-methanesulfonyl-2-methyl-quinoline], for which, at human GABABR1aR2a [6], the Emax is 37% and the EC50 worked out at 2.1 µM. On human GABABR1aR2a [7], the “GABA shift Log” value is on record as −0.45.

In the case of `CSc1nc(NC2CCCC2)c([N+](=O)[O-])c(NC2CCCC2)n1` [GS39783, N,N_-dicyclopentyl-2-methylsulfanyl-5-nitro-pyrimidine-4,6-diamine], the anxiolytic-like effects entry in the data set on anxiety [8] is “exhibited anxiolytic-like effects”. For the same compound, the “tolerance after chronic treatment” value with anxiety [9] (21 days, 10 mg/kg, P.O., once daily) is on record as “No tolerance”. Besides, in the data set on anxiety [9] (acute and chronic treatment), the “anxiolytic effects in light-dark box and elevated zero maze” value is on record as “anxiolytic effects”. Moreover, the “effect on cognition performance” value with cognition performance was “did not have any effect”. The “effect on spontaneous locomotor activity, rotarod, body temperature and traction test” value in data set [2] (0.1-200 mg/kg) is listed as “had no effect”. The “decrease of cocaine self-administration” value in [5] was “effective at decreasing cocaine self-administration”.

Usually Emax stands for the greatest response seen or fitted, relative to the assay's reference. Usually EC50 stands for the concentration giving half of the maximal effect.
